Measurements: the NIST ThermoML archive (doi:10.1016/j.jct.2019.03.025)

Conditions: Liquid, Vibrating tube method

Cc1cccc(C)c1 [1,3-dimethylbenzene]
mass density [kg/m3]
Conditions | 293.15 K | 303.15 K | 313.15 K | 323.15 K | 333.15 K | 343.15 K | 353.15 K | 363.15 K
100 kPa | 864.2 | 855 | 846.7 | 837.7 | 829 | 820 | 811.3 | 802.2
1000 kPa | 864.4 | 855.4 | 846.9 | 838.6 | 829.8 | 821.1 | 812.2 | 803.3
3000 kPa | 865.8 | 857.5 | 848.6 | 840.2 | 831.7 | 823 | 814.3 | 805.5
5000 kPa | 866.9 | 858.8 | 850.1 | 841.9 | 833.4 | 825 | 816.2 | 807.6
10000 kPa | 870.5 | 862.3 | 854 | 845.9 | 837.6 | 829.4 | 821 | 812.4
15000 kPa | 873.8 | 865.8 | 857.6 | 849.8 | 841.6 | 833.6 | 825.7 | 817.6
20000 kPa | 877 | 869 | 861.1 | 853.6 | 845.6 | 837.9 | 829.8 | 821.8
25000 kPa | 880.2 | 872.2 | 864.5 | 857 | 849.3 | 841.7 | 834 | 826
30000 kPa | 883.2 | 875.3 | 867.7 | 860.4 | 852.8 | 845.5 | 838 | 830.2
35000 kPa | 886 | 878.2 | 870.9 | 863.7 | 856.2 | 849.2 | 841.7 | 834.2
40000 kPa | 888.7 | 881 | 873.8 | 866.9 | 859.7 | 852.5 | 845.3 | 838.1
50000 kPa | 894.4 | 886.7 | 879.8 | 873 | 866 | 859.1 | 852.1 | 845.2
60000 kPa | 899.1 | 892 | 885.1 | 878.8 | 871.9 | 865 | 858.5 | 852
